This passage reports Ki results from BindingDB's records for doi:10.7270/Q2JS9NV0 (Nmmlsc, 2009).

The term Ki denotes a measure of affinity in units of concentration, obtained from inhibition or displacement. A high value points to weaker binding.

Molecules are shown by their SMILES.

This experiment concerns the target Ras-related C3 botulinum toxin substrate 1 (Mus musculus, UniProt P63001). Put plainly: analog inhibition of wildtype Rac1 nucleotide binding – biochemical, oxadiazole analogs, multiplex bead flow cytometry, SAR follow-up (AID 2027). A general note: In flow cytometry, cells or beads pass a laser one at a time.

Molecule `COc1ccc(-c2noc(CCC(=O)N3CCN(c4ccccc4F)CC3)n2)cc1` [1-[4-(2-fluorophenyl)piperazin-1-yl]-3-[3-(4-methoxyphenyl)-1,2,4-oxadiazol-5-yl]propan-1-one] had a Ki of 100 nM.
